Measured values from patent US8835462B2, “Macrocyclic picolinamides as fungicides” (Dow AgroSciences LLC, priority 2012, dated 2014).
Like-named read-outs stand apart in the source and are kept apart here.

What was measured:
Type in all cases: in vivo
Leptosphaeria nodorum = assay: Wheat glume blotch (LEPTNO) fungicidal activity; conditions: Parastagonospora nodorum, 24 h, 1 Day Protectant, read-out: Disease Control LEPTNO 1DP
Procedure: Technical grades of materials were dissolved in acetone, which were then mixed with nine volumes of water containing 110 ppm Triton X-100. The fungicide solutions were applied onto wheat seedlings using an automated booth sprayer to run-off. All sprayed plants were allowed to air dry prior to further handling. Wheat plants (variety Yuma) were grown from seed in a greenhouse in 50% mineral soil/50% soil-less Metro mix until the first leaf was fully emerged, with 7-10 seedlings per pot. These plants were inoculated with an aqueous spore suspension of Septoria tritici either prior to or after fungicide treatments. After inoculation the plants were kept in 100% relative humidity (one day in a dark dew chamber followed by two to three days in a lighted dew chamber at 20° C.) to permit spores to germinate and infect the leaf. The plants were then transferred to a greenhouse set at 20° C. for disease to develop. When disease symptoms were fully expressed on the 1st leaves of untreated plants, infection levels were assessed on a scale of 0 to 100 percent disease severity. Percent disease control was calculated using the ratio of disease severity on treated plants relative to untreated plants. Evaluation of Fungicidal Activity: Wheat Glume Blotch (Leptosphaeria Nodorum; Bayer Code […]) Wheat plants (variety Yuma) were grown from seed in a greenhouse in 50% mineral soil/50% soil-less Metro mix until the first leaf was fully emerged, with 7-10 seedlings per pot. These plants were inoculated with an aqueous spore suspension of Leptosphaeria nodorum 24 hr after fungicide treatments. After inoculation the plants were kept in 100% relative humidity (one day in a dark dew chamber followed by two days in a lighted dew chamber at 20° C.) to permit spores to germinate and infect the leaf. The plants were then transferred to a greenhouse set at 20° C. for disease to develop. Fungicide formulation, application and disease assessment followed the procedures as described in the Example A.

[1] = test system: Mycosphaerella graminicola; Anamorph: Septoria tritici; assay: Leaf blotch of wheat (SEPTTR) fungicidal activity on wheat seedlings; conditions: Zymoseptoria tritici
How it was run: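 Compounds in acetone were diluted with nine volumes of water containing 110 ppm Triton X-100 and sprayed to run-off on Yuma wheat seedlings at first-leaf stage. Septoria tritici spores were inoculated before or after treatment, followed by dew chambers at 100% RH and 20 °C, then greenhouse at 20 °C. Severity (0–100%) was scored once untreated plants were fully diseased; control was calculated relative to untreated plants.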

Alternaria solani = assay: Tomato early blight (ALTESO) fungicidal activity; conditions: 24 h, 1 Day Protectant, read-out: Disease Control ALTESO 1DP
Procedure: Technical grades of materials were dissolved in acetone, which were then mixed with nine volumes of water containing 110 ppm Triton X-100. The fungicide solutions were applied onto wheat seedlings using an automated booth sprayer to run-off. All sprayed plants were allowed to air dry prior to further handling. Wheat plants (variety Yuma) were grown from seed in a greenhouse in 50% mineral soil/50% soil-less Metro mix until the first leaf was fully emerged, with 7-10 seedlings per pot. These plants were inoculated with an aqueous spore suspension of Septoria tritici either prior to or after fungicide treatments. After inoculation the plants were kept in 100% relative humidity (one day in a dark dew chamber followed by two to three days in a lighted dew chamber at 20° C.) to permit spores to germinate and infect the leaf. The plants were then transferred to a greenhouse set at 20° C. for disease to develop. When disease symptoms were fully expressed on the 1st leaves of untreated plants, infection levels were assessed on a scale of 0 to 100 percent disease severity. Percent disease control was calculated using the ratio of disease severity on treated plants relative to untreated plants. Evaluation of Fungicidal Activity: Tomato Early Blight (Alternaria Solani; Bayer Code […]) Tomato plants (variety Outdoor girl) were propagated in soil-less Metro mix, with each pot having one plant, and used when 12 to 14 days old. Test plants were inoculated with an aqueous spore suspension of Alternaria solani 24 hr after fungicide treatments. After inoculation the plants were kept in 100% relative humidity (one day in a dark dew chamber followed by two to three days in a lighted dew chamber at 20° C.) to permit spores to germinate and infect the leaf. The plants were then transferred to a growth room at 22° C. for disease to develop. Fungicide formulation, application and disease assessment on the sprayed leaves followed the procedures as described in the Example A.

[2] = test system: Blumeria graminis f. sp. hordei; assay: Barley powdery mildew (ERYSGH) fungicidal activity; conditions: 24 h, 1 Day Protectant, read-out: Disease Control ERYSGH 1DP
Procedure: Technical grades of materials were dissolved in acetone, which were then mixed with nine volumes of water containing 110 ppm Triton X-100. The fungicide solutions were applied onto wheat seedlings using an automated booth sprayer to run-off. All sprayed plants were allowed to air dry prior to further handling. Wheat plants (variety Yuma) were grown from seed in a greenhouse in 50% mineral soil/50% soil-less Metro mix until the first leaf was fully emerged, with 7-10 seedlings per pot. These plants were inoculated with an aqueous spore suspension of Septoria tritici either prior to or after fungicide treatments. After inoculation the plants were kept in 100% relative humidity (one day in a dark dew chamber followed by two to three days in a lighted dew chamber at 20° C.) to permit spores to germinate and infect the leaf. The plants were then transferred to a greenhouse set at 20° C. for disease to develop. When disease symptoms were fully expressed on the 1st leaves of untreated plants, infection levels were assessed on a scale of 0 to 100 percent disease severity. Percent disease control was calculated using the ratio of disease severity on treated plants relative to untreated plants. Evaluation of Fungicidal Activity: Barley Powdery Mildew (Blumeria Graminis f. sp. Hordei; Synonym: Erysiphe Graminis f. sp. Hordei; Bayer Code […]) Barley seedlings (variety Harrington) were propagated in soil-less Metro mix, with each pot having 8 to 12 plants, and used in the test when first leaf was fully emerged. Test plants were inoculated by dusting with infected stock plants 24 hr after fungicide treatments. After inoculation the plants were kept in a greenhouse set at 20° C. for disease to develop. Fungicide formulation, application and disease assessment on the sprayed leaves followed the procedures as described in the Example A.

[3] = 24 h, 1 Day Protectant, read-out: Disease Control SEPTTR 1 DP
[4] = 72 h, 3 Day Curative, read-out: Disease Control SEPTTR 3 DC

`COc1ccnc(C(=O)N[C@H]2COC[C@H](Cc3ccccc3)[C@@H](OC(=O)c3ccccc3)[C@H](C)OC2=O)c1OCOC(C)=O` [Compound 37] showed a pest or weed control at 100 ppm (Leptosphaeria nodorum) of 80 to 100%, a pest or weed control at 100 ppm [1, 3] of 80 to 100% and a pest or weed control at 100 ppm [1, 4] of 80 to 100%. The pest or weed control at 100 ppm (Alternaria solani) was 80 to 100% and the pest or weed control at 100 ppm [2] was 0 to 80%.

With `COc1ccnc(C(=O)N[C@H]2COC[C@H](Cc3ccccc3)[C@@H](OC(=O)C3CC3)[C@H](C)OC2=O)c1OCOC(C)=O` [Compound 38] the pest or weed control at 100 ppm (Leptosphaeria nodorum) was 80 to 100%, the pest or weed control at 100 ppm [1, 3] was 80 to 100% and the pest or weed control at 100 ppm [1, 4] was 80 to 100%. It also gave a pest or weed control at 100 ppm (Alternaria solani) of 80 to 100% and a pest or weed control at 100 ppm [2] of 80 to 100%.

`COc1ccnc(C(=O)N[C@H]2COC[C@H](Cc3ccccc3)[C@@H](OC)[C@H](C)OC2=O)c1OCOC(C)=O` [Compound 39] was tested, and the pest or weed control at 100 ppm (Leptosphaeria nodorum) was 80 to 100%, the pest or weed control at 100 ppm [1, 3] was 80 to 100% and the pest or weed control at 100 ppm [1, 4] was 80 to 100%. For the same compound, the pest or weed control at 100 ppm (Alternaria solani) was 0 to 80% and the pest or weed control at 100 ppm [2] was 0 to 80%.

In the case of `COc1ccnc(C(=O)N[C@H]2COC[C@H](Cc3ccccc3)[C@@H](OC3CCCC3)[C@H](C)OC2=O)c1OCOC(C)=O` [Compound 106], the pest or weed control at 100 ppm (Leptosphaeria nodorum) is reported as 80 to 100%, the pest or weed control at 100 ppm [1, 3] is reported as 80 to 100% and the pest or weed control at 100 ppm [1, 4] is reported as 80 to 100%. It also gave a pest or weed control at 100 ppm (Alternaria solani) of 0 to 80% and a pest or weed control at 100 ppm [2] of 80 to 100%.

`COc1ccnc(C(=O)N[C@H]2COC[C@H](Cc3ccccc3)[C@@H](OC3CCCC3)[C@H](C)OC2=O)c1OC(C)=O` [Compound 107] was tested, and the pest or weed control at 100 ppm (Leptosphaeria nodorum) was 80 to 100%, the pest or weed control at 100 ppm [1, 3] was 80 to 100% and the pest or weed control at 100 ppm [1, 4] was 80 to 100%. The pest or weed control at 100 ppm (Alternaria solani) was 0 to 80% and the pest or weed control at 100 ppm [2] was 80 to 100%.

`COc1ccnc(C(=O)N[C@H]2COC[C@H](Cc3ccccc3)[C@@H](OC3CCCC3)[C@H](C)OC2=O)c1OCOC(=O)C(C)C` [Compound 108] gave a pest or weed control at 100 ppm (Leptosphaeria nodorum) of 80 to 100%, a pest or weed control at 100 ppm [1, 3] of 80 to 100% and a pest or weed control at 100 ppm [1, 4] of 0 to 80%. The pest or weed control at 100 ppm (Alternaria solani) was 80 to 100% and the pest or weed control at 100 ppm [2] was 80 to 100%.
